The values below are quoted from earlier work in patent US20240122923A1, “METHODS OF TREATING HIDRADENITIS SUPPURATIVA” (AbbVie Inc., priority 2022, published 2024).

The test system of the series is HS. The following applies: 24-week treatment period; cited from earlier work.

etanercept: the “improvement of HS” value was “failed to show improvement of HS”.
